# Measured values taken from EP0295827A2, “Use of 24,25-dihydroxy-cholecalciferol in mending bone fractures” (priority 1987, dated 1988).
# How the values were obtained:
# ICR mice = experiment: 30-day repeated oral administration: biochemical serum test; format: in vivo; parameters: key: ↓: Decreased; →: No change; ↑: Increased; details: 30 days, vs control group
# Method: (§1) 24R,25-(OH)₂-D₃ was dissolved in 1% ethanol containing Panacate 810 to a predetermined concentration and the resultant solution was forcibly and orally administered to 5-week-old male or female ICR mice for 30 days in succession so that the does might become to 10 µg/kg/day, 100 µg/kg/day and 1,000 µg/kg/day, respectively. The thus treated mice were compared with a group of mice to which only the solvent had been administered in the following test items.
# [1] = 30-day repeated oral administration: growth curve of measured weights; format: in vivo, ICR mice; details: 10, 100 and 1,000 µg/kg/day oral, 30 days, male or female, vs solvent group
# Method: as §1
smiles,measurement,setting,value
"C=C1CC[C@H](O)C/C1=C/C=C1\CCC[C@]2(C)[C@@H]([C@H](C)CC[C@@H](O)C(C)(C)O)CC[C@@H]12 [24R,25-(OH)₂-D₃]",A/G,"ICR mice; female, 10 µg/kg·day oral",→
same,ALP,"ICR mice; female, 10 µg/kg·day oral",→
same,Aℓb,"ICR mice; female, 10 µg/kg·day oral",→
same,BUN,"ICR mice; female, 10 µg/kg·day oral",→
same,Ca,"ICR mice; female, 10 µg/kg·day oral",→
same,GOT,"ICR mice; female, 10 µg/kg·day oral",→
same,GPT,"ICR mice; female, 10 µg/kg·day oral",→
same,Gℓu,"ICR mice; female, 10 µg/kg·day oral",→
same,I-P,"ICR mice; female, 10 µg/kg·day oral",→
same,LDH,"ICR mice; female, 10 µg/kg·day oral",→
same,T-Biℓ,"ICR mice; female, 10 µg/kg·day oral",→
same,T-CHO,"ICR mice; female, 10 µg/kg·day oral",→
same,T-P,"ICR mice; female, 10 µg/kg·day oral",→
same,A/G,"ICR mice; female, 100 µg/kg·day oral",→
same,ALP,"ICR mice; female, 100 µg/kg·day oral",→
same,Aℓb,"ICR mice; female, 100 µg/kg·day oral",→
same,BUN,"ICR mice; female, 100 µg/kg·day oral",→
same,Ca,"ICR mice; female, 100 µg/kg·day oral",→
same,GOT,"ICR mice; female, 100 µg/kg·day oral",→
same,GPT,"ICR mice; female, 100 µg/kg·day oral",→
same,Gℓu,"ICR mice; female, 100 µg/kg·day oral",→
same,I-P,"ICR mice; female, 100 µg/kg·day oral",→
same,LDH,"ICR mice; female, 100 µg/kg·day oral",→
same,T-Biℓ,"ICR mice; female, 100 µg/kg·day oral",→
same,T-CHO,"ICR mice; female, 100 µg/kg·day oral",→
same,T-P,"ICR mice; female, 100 µg/kg·day oral",→
same,A/G,"ICR mice; female, 1000 µg/kg·day oral",→
same,ALP,"ICR mice; female, 1000 µg/kg·day oral",→
same,Aℓb,"ICR mice; female, 1000 µg/kg·day oral",→
same,BUN,"ICR mice; female, 1000 µg/kg·day oral",→
same,Ca,"ICR mice; female, 1000 µg/kg·day oral",→
same,GOT,"ICR mice; female, 1000 µg/kg·day oral",→
same,GPT,"ICR mice; female, 1000 µg/kg·day oral",→
same,Gℓu,"ICR mice; female, 1000 µg/kg·day oral",→
same,I-P,"ICR mice; female, 1000 µg/kg·day oral",→
same,LDH,"ICR mice; female, 1000 µg/kg·day oral",→
same,T-Biℓ,"ICR mice; female, 1000 µg/kg·day oral",→
same,T-CHO,"ICR mice; female, 1000 µg/kg·day oral",→
same,T-P,"ICR mice; female, 1000 µg/kg·day oral",→
same,A/G,"ICR mice; male, 10 µg/kg·day oral",→
same,ALP,"ICR mice; male, 10 µg/kg·day oral",→
same,Aℓb,"ICR mice; male, 10 µg/kg·day oral",→
same,BUN,"ICR mice; male, 10 µg/kg·day oral",→
same,Ca,"ICR mice; male, 10 µg/kg·day oral",→
same,GOT,"ICR mice; male, 10 µg/kg·day oral",→
same,GPT,"ICR mice; male, 10 µg/kg·day oral",→
same,Gℓu,"ICR mice; male, 10 µg/kg·day oral",→
same,I-P,"ICR mice; male, 10 µg/kg·day oral",→
same,LDH,"ICR mice; male, 10 µg/kg·day oral",→
same,T-Biℓ,"ICR mice; male, 10 µg/kg·day oral",→
same,T-CHO,"ICR mice; male, 10 µg/kg·day oral",→
same,T-P,"ICR mice; male, 10 µg/kg·day oral",→
same,A/G,"ICR mice; male, 100 µg/kg·day oral",→
same,ALP,"ICR mice; male, 100 µg/kg·day oral",→
same,Aℓb,"ICR mice; male, 100 µg/kg·day oral",→
same,BUN,"ICR mice; male, 100 µg/kg·day oral",→
same,Ca,"ICR mice; male, 100 µg/kg·day oral",→
same,GOT,"ICR mice; male, 100 µg/kg·day oral",→
same,GPT,"ICR mice; male, 100 µg/kg·day oral",→
same,Gℓu,"ICR mice; male, 100 µg/kg·day oral",→
same,I-P,"ICR mice; male, 100 µg/kg·day oral",→
same,LDH,"ICR mice; male, 100 µg/kg·day oral",→
same,T-Biℓ,"ICR mice; male, 100 µg/kg·day oral",→
same,T-CHO,"ICR mice; male, 100 µg/kg·day oral",→
same,T-P,"ICR mice; male, 100 µg/kg·day oral",→
same,A/G,"ICR mice; male, 1000 µg/kg·day oral",→
same,ALP,"ICR mice; male, 1000 µg/kg·day oral",→
same,Aℓb,"ICR mice; male, 1000 µg/kg·day oral",→
same,BUN,"ICR mice; male, 1000 µg/kg·day oral",↓
same,Ca,"ICR mice; male, 1000 µg/kg·day oral",→
same,GOT,"ICR mice; male, 1000 µg/kg·day oral",→
same,GPT,"ICR mice; male, 1000 µg/kg·day oral",→
same,Gℓu,"ICR mice; male, 1000 µg/kg·day oral",↓
same,I-P,"ICR mice; male, 1000 µg/kg·day oral",→
same,LDH,"ICR mice; male, 1000 µg/kg·day oral",↓
same,T-Biℓ,"ICR mice; male, 1000 µg/kg·day oral",↓
same,T-CHO,"ICR mice; male, 1000 µg/kg·day oral",→
same,T-P,"ICR mice; male, 1000 µg/kg·day oral",→
same,growth curve of the measured weights,[1],no significant difference
